Results as given in paper PMC6831561, “Pharmacological and Behavioral Effects of the Synthetic Cannabinoid AKB48 in Rats” (Frontiers in Neuroscience, 2019).
Read-outs that look alike come from different tables or passages of the source.

What was measured:
[1] = AKB48 plasma pharmacokinetics (LC-MS/MS); type: in vivo, rats; conditions: for Tmax: male, Sprague-Dawley, rat, plasma, ip, read-out: time to peak plasma concentration (converted)
Procedure: To correlate the pharmacological effects of AKB48 with its blood levels, we measured somatosensory responses (visual, acoustic, and tactile), body temperature, and mechanical analgesia in rats at timed intervals post-AKB48 injection (for behavioral tests, see before), while simultaneously obtaining serial blood specimens for analysis of AKB48.
Sixteen male Sprague-Dawley rats were used in the study. Rats were anaesthetized with Equitesin [3 mL/kg intraperitoneal (ip); chloral hydrate 2.1 g, sodium pentobarbital 0.46 g, MgSO 1.06 g, propylene glycol 21.4 mL, ethanol (90%) 5.7 mL, H2O 3 mL] and implanted in the right jugular vein with a catheter, consisting of medical-grade tubing (Silastic, Dow Corning Corporation, MI, United States) according to the technique previously described ([Lecca et al., 2006]). A stable fixation in the mid-scapular region of the back was embedded by a polypropylene mesh (Evolution, BULEV, weight 48 g/mq, Dipromed, Italy). During the recovery period, at least 7 days after surgery, the catheters were flushed daily with 0.1 mL of gentamicin (40 mg/mL) and with heparinized saline (heparin 250 U/mL in 0.9% sterile saline). Fifteen days after recovery from surgery, rats were trained in handling, behavioral tests, and withdrawing blood from the catheter. Four groups of rats (n = 4) randomly received intraperitoneal injection of a single dose of AKB48 (0.1, 0.3, 0.5, or 3.0 mg/kg), and behavioral tests were conducted as previously reported in safety pharmacology studies (see before). Blood specimens (300 μL) were withdrawn via catheters immediately before the behavioral measurements (T = 0) and at 20, 40, 70, 140, and 195 min after drug injection. Blood specimens were collected into 1–mL vials containing sodium fluoride (4 mg/mL of blood) as preservative and anticoagulant. After each blood withdrawal, an equal volume of saline solution was infused via the intravenous catheter to maintain volume and osmotic homeostasis.
A dispersive liquid-liquid microextraction (DLLME) was performed for sample purification. Three hundred microliter of blood samples were spiked with 10 μL of JWH-209 D9 as an internal standard, achieving the final concentration of 20 ng/mL, and deproteinized with 500 μL of methanol. The sample was centrifuged at 10,000 rpm for 10 min, and 500 μL surnatant was transferred into a 15 mL conical tube containing 1 mL of water, 0.2 g of NaCl, and 100 μL of carbonate buffer, pH 9. In order to obtain the formation of the cloudy solution, 350 μL of a mixture, chloroform/methanol 1:2.5, respectively the extractant and the disperser solvent, was rapidly added to obtain the formation of a turbid mixture. […]

hepatocyte model = conditions: ref Gandhi et al., 2013; cited from earlier work
rats [2] = experiment: Cardiorespiratory analysis (heart rate, breath rate, SpO2); type: in vivo
From the text: During the experiment, the rat was allowed to freely move in a cage (40 × 40 × 30 cm) with no access to food and water while being monitored by the sensor collar through MouseOx Plus (STARR Life Sciences® Corp., Oakmont, PA, United States) software. In the first hour of acclimation, a fake collar similar to the real one used in the test but with no sensor was used to minimize the potential stress during the experiment. Then, the real collar (with sensor) was replaced, and baseline parameters were monitored for 60 min.

rats [3] = experiment: Open field test and gross behavior test; type: in vivo
Procedure: An open field, used to measure locomotor activity, consisted of a wooden chamber (45 cm high) with a circular base (75 cm diameter). The floor was divided into 12 sections of similar area by two concentric circles and radial segments. The apparatus was placed in a sound-proof room, illuminated by a white 80 W lamp placed 200 cm over the center of the arena. Rat behavior in the test sessions was videotaped, analyzed, and scored. The following parameters were measured: time spent in the central or peripheral area, locomotor activity, and number of rearing reactions. Each of the behavioral parameters was scored manually by a tally counting method. The behavioral parameters scored were head twitches, wet dog shakes, grooming, licking, number of defecations, and tail rigidity. In the open field test, 21 male Sprague-Dawley rats were used and divided into three groups (n = 7 per group) and received different doses of AKB48 according to the CPP protocol. After treatment, the animals were leaved undisturbed for 10 min in the arena and then observed for 30 min.

[4] = AKB48 highest dose (3 mg/kg), after 60 min from injection
[5] = AKB48 0.1 and 0.5 mg/kg i.p., both doses

SMILES: CCCCCn1nc(C(=O)NC23CC4CC(CC(C4)C2)C3)c2ccccc21 [AKB48, N-(1-adamantyl)-1-pentyl-1H-indazole-3-carboxamide]
- plasma concentration versus dose ([1]; 0.1–3.0 mg/kg i.p.): rising linearly
- plasmatic concentrations after the peak ([1]; for the following 120 min): remained quite stable
- Tmax ([1]; higher doses (0.5 and 3.0 mg/kg i.p.)): 60 min
- Tmax ([1]; low doses (0.1 and 0.3 mg/kg i.p.)): 30 min
- number of major metabolites (hepatocyte model): 11
- duration of the heart rate decrease (rats [2]; AKB48 3.0 mg/kg i.p.): about 90 min
- time at which the heart rate effect disappeared (rats [2]; AKB48 3.0 mg/kg i.p.): 180 min
- reduction of heart rate (rats [2]; AKB48 3.0 mg/kg i.p., after 30 min from injection): ~36%
- time at which the SpO2 effect disappeared (rats [2]; AKB48 highest dose (3 mg/kg)): 120 min
- time at which the breath rate effect disappeared (rats [2]; AKB48 highest dose (3 mg/kg)): 120 min
- reduction of SpO2 saturation (rats [2]; [4]): ~10%
- reduction of breath rate (rats [2]; [4]): ~30%
- distance traveled in the central area (rats [3]; AKB48 0.5 mg/kg): reduced
- time spent in the central area (rats [3]; AKB48 0.5 mg/kg): reduced
- total distance traveled (rats [3]; AKB48 0.5 mg/kg): reduced
- amount of defecation (rats [3]; AKB48 0.1 and 0.5 mg/kg i.p.): did not affect
- grooming (rats [3]; AKB48 0.1 and 0.5 mg/kg i.p.): did not affect
- head shaking (rats [3]; AKB48 0.1 and 0.5 mg/kg i.p.): did not affect
- rearing (rats [3]; AKB48 0.1 and 0.5 mg/kg i.p.): no effect
- spontaneous locomotor activity (rats [3]; AKB48 0.1 and 0.5 mg/kg i.p.): reduced
- wet dog shaking (rats [3]; AKB48 0.1 and 0.5 mg/kg i.p.): did not affect
- licking (rats [3]; [5]): decrease
- tail rigidity (rats [3]; [5]): significant increase
